Results from patent US12559492B2, “BRAF degraders” (C4 Therapeutics, Inc., priority 2020, dated 2026).

Molecular target: BRAF^V600E protein (Homo sapiens, UniProt P15056, V600E)
Assay: HiBiT cellular BRAF V600E degradation assay
Format: cell-based
Settings: 24 h incubation; for DC50: A375.10 cells (HiBiT tag knocked in at N-terminal of BRAF V600E), concentration at which 50% of total cellular BRAF V600E is degraded; for Emax / HiBit 24 h Emax: A375.10 cells, Emax = amount of residual protein remaining in the cell after compound treatment; for Emax: read-out: HiBit 24 h Emax
Text: DMEM no-phenol red medium supplemented with L-glutamine was purchased from (Corning). Fetal bovine serum (FBS) was purchased from Gibco (Grand Island, NY, USA). Nano-Glo® HiBiT Lytic Assay Buffer & Reagents were purchased from Promega (Madison, WI, USA). […] Cell culture flasks and 384-well black flat-bottom polystyrene TC-treated microplates were acquired from Corning (Corning, NY, USA).
HiBiT Cellular BRAFv^600E Degradation Assay
Prior to the assay, the A375.10 cell line is maintained in DMEM no-phenol red medium supplemented with 10% fetal bovine serum (FBS). […] Briefly, test compounds were added to the 384-well plate from a top concentration of 10 μM with 11 half log dilutions of compound, plated in duplicate. Then, 30 uL of a suspension of A375.10 cell lines was dispensed into columns 1-24 of the 384-well plates at a cell density of 7500 cells per well. The plates were kept at 37° C. with 5% CO2 for the duration of the assay (6 or 24 hr). After the desired incubation time with compound, 30 uL of Nano-Glo® HiBiT Lytic Buffer containing LgBiT protein (diluted 1:100) and luminescence substrate (diluted 1:50) were added to the cells in columns 1-23 of the assay plate. The plate was the incubated for 30 min on the bench at room temperature. Finally, HiBiT luminescence signal was acquired on EnVision™ Multilabel Reader (PerkinElmer, Santa Clara, CA, USA).
Quantification of luminescence responses measured in the presence of compound were normalized to a high signal/no degradation control (untreated cells+lytic detection reagent) and a low signal/full degradation control (untreated cells, no lytic detection reagent). Data were analyzed with a 4-parameter logistic fit to generate sigmoidal dose-response curves. […] The Emax, or maximum effect of each compound, represents the amount of residual protein remaining in the cell following compound treatment.

Chain of BRAF^V600E protein (P15056 whole entry V600E): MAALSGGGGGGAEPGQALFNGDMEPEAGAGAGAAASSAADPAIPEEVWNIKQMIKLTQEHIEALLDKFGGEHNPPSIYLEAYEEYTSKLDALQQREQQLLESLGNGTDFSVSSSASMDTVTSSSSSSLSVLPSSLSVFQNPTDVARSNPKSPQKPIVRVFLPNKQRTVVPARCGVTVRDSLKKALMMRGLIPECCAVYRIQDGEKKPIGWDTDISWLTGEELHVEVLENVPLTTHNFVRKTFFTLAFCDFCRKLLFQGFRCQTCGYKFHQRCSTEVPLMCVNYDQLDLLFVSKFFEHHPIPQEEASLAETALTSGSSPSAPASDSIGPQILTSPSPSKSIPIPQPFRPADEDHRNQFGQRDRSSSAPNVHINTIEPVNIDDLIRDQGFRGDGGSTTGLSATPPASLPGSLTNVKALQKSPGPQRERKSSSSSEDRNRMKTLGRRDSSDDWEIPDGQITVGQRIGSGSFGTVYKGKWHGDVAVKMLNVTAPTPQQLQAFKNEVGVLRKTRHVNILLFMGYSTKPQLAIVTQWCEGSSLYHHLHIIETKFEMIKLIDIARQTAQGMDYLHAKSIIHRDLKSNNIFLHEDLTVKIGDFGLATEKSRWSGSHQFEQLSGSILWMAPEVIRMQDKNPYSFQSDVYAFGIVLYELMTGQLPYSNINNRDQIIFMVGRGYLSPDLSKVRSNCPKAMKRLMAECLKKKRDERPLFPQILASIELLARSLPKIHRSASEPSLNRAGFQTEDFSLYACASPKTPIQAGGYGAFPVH

| SMILES | DC50 [nM] | Emax [%] | HiBit 24 h Emax [%] |
| --- | --- | --- | --- |
| CC(C)S(=O)(=O)Nc1ccc(F)c(C(=O)c2c[nH]c3ncc(-c4cnc(N5CCN(C(=O)CN6CCC(c7ccc(C8CCC(=O)NC8=O)cc7F)CC6)CC5)nc4)cc23)c1F (centres unmarked) [Example 9, N-[3-[5-[2-[4-[2-[4-[4-(2,6-dioxo-3-piperidyl)-2-fluoro-phenyl]-1-piperidyl]acetyl]piperazin-1-yl]pyrimidin-5-yl]-1H-pyrrolo[2,3-b]pyridine-3-carbonyl]-2,4-difluoro-phenyl]propane-2-sulfonamide] | 10.7 | 3.41 |  |
| CC(C)S(=O)(=O)Nc1ccc(F)c(C(=O)c2c[nH]c3ncc(-c4ccc(N5CCN(C(=O)CN6CCC(c7ccc(NC8CCC(=O)NC8=O)cc7F)CC6)CC5)nc4)cc23)c1F (centres unmarked) [Example 12, N-[3-[5-[6-[4-[2-[4-[4-[(2,6-dioxo-3-piperidyl)amino]-2-fluoro-phenyl]-1-piperidyl]acetyl]piperazin-1-yl]-3-pyridyl]-1H-pyrrolo[2,3-b]pyridine-3-carbonyl]-2,4-difluoro-phenyl]propane-2-sulfonamide] | 9.73 | 8.03 |  |
| CC(C)S(=O)(=O)Nc1ccc(F)c(C(=O)c2c[nH]c3ncc(-c4ccc(N5CCN(C(=O)CN6CCC(c7ccc(OC8CCC(=O)NC8=O)cc7)CC6)CC5)nc4)cc23)c1F (centres unmarked) [Example 13, N-[3-[5-[6-[4-[2-[4-[4-[(2,6-dioxo-3-piperidyl)oxy]phenyl]-1-piperidyl]acetyl]piperazin-1-yl]-3-pyridyl]-1H-pyrrolo[2,3-b]pyridine-3-carbonyl]-2,4-difluoro-phenyl]propane-2-sulfonamide] | 20.9 | 9.56 |  |
| CC(C)S(=O)(=O)Nc1ccc(F)c(C(=O)c2c[nH]c3ncc(-c4ccc(N5CCN(C(=O)CN6CCC(c7ccc(C8CCC(=O)NC8=O)cc7)CC6)CC5)nc4)cc23)c1F (centres unmarked) [Example 14, N-[3-[5-[6-[4-[2-[4-[4-(2,6-dioxo-3-piperidyl)phenyl]-1-piperidyl]acetyl]piperazin-1-yl]-3-pyridyl]-1H-pyrrolo[2,3-b]pyridine-3-carbonyl]-2,4-difluoro-phenyl]propane-2-sulfonamide] | 8.56 | 3.41 |  |
| CC(C)S(=O)(=O)Nc1ccc(F)c(C(=O)c2c[nH]c3ncc(-c4ccc(N5CCN(C(=O)CN6CCC(c7ccc(C8CCC(=O)NC8=O)cc7F)CC6)CC5)nc4)cc23)c1F (centres unmarked) [Example 15, N-[3-[5-[6-[4-[2-[4-[4-(2,6-dioxo-3-piperidyl)-2-fluoro-phenyl]-1-piperidyl]acetyl]piperazin-1-yl]-3-pyridyl]-1H-pyrrolo[2,3-b]pyridine-3-carbonyl]-2,4-difluoro-phenyl]propane-2-sulfonamide] | 9.59 | 2.65 |  |
| CCN(C)S(=O)(=O)Nc1ccc(F)c(C(=O)c2c[nH]c3ncc(-c4cnc(N5CCN(C(=O)CN6CCN(c7ccc(NC8CCC(=O)NC8=O)cc7)CC6)CC5)nc4)cc23)c1F (centres unmarked) [Example 19, 5-[2-[4-[2-[4-[4-[(2,6-dioxo-3-piperidyl)amino]phenyl]piperazin-1-yl]acetyl]piperazin-1-yl]pyrimidin-5-yl]-3-[3-[[ethyl(methyl)sulfamoyl]amino]-2,6-difluoro-benzoyl]-1H-pyrrolo[2,3-b]pyridine] | 8.57 |  | 11.26 |
| CCN(C)S(=O)(=O)Nc1ccc(F)c(C(=O)c2c[nH]c3ncc(-c4cnc(N5CCN(C(=O)CN6CCC(c7ccc(NC8CCC(=O)NC8=O)cn7)CC6)CC5)nc4)cc23)c1F (centres unmarked) [Example 21, 5-[2-[4-[2-[4-[5-[(2,6-dioxo-3-piperidyl)amino]-2-pyridyl]-1-piperidyl]acetyl]piperazin-1-yl]pyrimidin-5-yl]-3-[3-[[ethyl(methyl)sulfamoyl]amino]-2,6-difluoro-benzoyl]-1H-pyrrolo[2,3-b]pyridine] | 7.1 | 11.9 |  |
| CCN(C)S(=O)(=O)Nc1ccc(F)c(C(=O)c2c[nH]c3ncc(-c4cnc(N5CCN(C(=O)CN6CCC(c7ccc(N(C)C8CCC(=O)NC8=O)cc7)CC6)CC5)nc4)cc23)c1F (centres unmarked) [Example 22, 5-[2-[4-[2-[4-[4-[(2,6-dioxo-3-piperidyl)-methyl-amino]phenyl]-1-piperidyl]acetyl]piperazin-1-yl]pyrimidin-5-yl]-3-[3-[[ethyl(methyl)sulfamoyl]amino]-2,6-difluoro-benzoyl]-1H-pyrrolo[2,3-b]pyridine] | 19.4 |  | 18.02 |
| CCN(C)S(=O)(=O)Nc1ccc(F)c(C(=O)c2c[nH]c3ncc(-c4cnc(N5CCN(C(=O)CN6CCC(c7ccc(N8CCC(=O)NC8=O)cc7)CC6)CC5)nc4)cc23)c1F [Example 24, 5-[2-[4-[2-[4-[4-(2,4-dioxohexahydropyrimidin-1-yl)phenyl]-1-piperidyl]acetyl]piperazin-1-yl]pyrimidin-5-yl]-3-[3-[[ethyl(methyl)sulfamoyl]amino]-2,6-difluoro-benzoyl]-1H-pyrrolo[2,3-b]pyridine] | 5.59 |  | 7.88 |
| CCN(C)S(=O)(=O)Nc1ccc(F)c(C(=O)c2c[nH]c3ncc(-c4cnc(N5CCN(C(=O)CN6CCC(Nc7ccc8c(C9CCC(=O)NC9=O)nn(C)c8c7)CC6)CC5)nc4)cc23)c1F (centres unmarked) [Example 28, 3-(2,6-dioxo-3-piperidyl)-6-[[1-[2-[4-[5-[3-[3-[[ethyl(methyl)sulfamoyl]amino]-2,6-difluoro-benzoyl]-1H-pyrrolo[2,3-b]pyridin-5-yl]pyrimidin-2-yl]piperazin-1-yl]-2-oxo-ethyl]-4-piperidyl]amino]-1-methyl-indazole] | 5.81 | 12 |  |

Stronger by DC50, values ahead:

| DC50 [nM] | Emax [%] | HiBit 24 h Emax [%] | SMILES |
| --- | --- | --- | --- |
| 5.08 | 7.97 |  | CC(C)S(=O)(=O)Nc1ccc(F)c(C(=O)c2c[nH]c3ncc(-c4ccc(N5CCN(C(=O)CN6CCC(c7ccc(NC8CCC(=O)NC8=O)cc7)CC6)CC5)nc4)cc23)c1F (centres unmarked) [Example 11, N-[3-[5-[6-[4-[2-[4-[4-[(2,6-dioxo-3-piperidyl)amino]phenyl]-1-piperidyl]acetyl]piperazin-1-yl]-3-pyridyl]-1H-pyrrolo[2,3-b]pyridine-3-carbonyl]-2,4-difluoro-phenyl]propane-2-sulfonamide] |
| 4.55 | 7 |  | CCN(C)S(=O)(=O)Nc1ccc(F)c(C(=O)c2c[nH]c3ncc(-c4cnc(N5CCN(C(=O)CN6CCC(c7ccc(N[C@@H]8CCC(=O)NC8=O)cc7)CC6)CC5)nc4)cc23)c1F [Example 26, 5-[2-[4-[2-[4-[4-[[(3R)-2,6-dioxo-3-piperidyl]amino]phenyl]-1-piperidyl]acetyl]piperazin-1-yl]pyrimidin-5-yl]-3-[3-[[ethyl(methyl)sulfamoyl]amino]-2,6-difluoro-benzoyl]-1H-pyrrolo[2,3-b]pyridine] |
| 4.45 | 8.46 |  | CC(C)S(=O)(=O)Nc1ccc(F)c(C(=O)c2c[nH]c3ncc(-c4cnc(N5CCN(C(=O)CN6CCC(c7ccc8c(N9CCC(=O)NC9=O)nn(C)c8c7)CC6)CC5)nc4)cc23)c1F [Example 10, N-[3-[5-[2-[4-[2-[4-[3-(2,4-dioxohexahydropyrimidin-1-yl)-1-methyl-indazol-6-yl]-1-piperidyl]acetyl]piperazin-1-yl]pyrimidin-5-yl]-1H-pyrrolo[2,3-b]pyridine-3-carbonyl]-2,4-difluoro-phenyl]propane-2-sulfonamide] |
| 3.63 | 6.36 |  | CCN(C)S(=O)(=O)Nc1ccc(F)c(C(=O)c2c[nH]c3ncc(-c4cnc(N5CCN(C(=O)CN6CCC(c7ccc(N[C@H]8CCC(=O)NC8=O)cc7)CC6)CC5)nc4)cc23)c1F [Example 25, 5-[2-[4-[2-[4-[4-[[(3S)-2,6-dioxo-3-piperidyl]amino]phenyl]-1-piperidyl]acetyl]piperazin-1-yl]pyrimidin-5-yl]-3-[3-[[ethyl(methyl)sulfamoyl]amino]-2,6-difluoro-benzoyl]-1H-pyrrolo[2,3-b]pyridine] |
| 2.85 |  | 7.93 | CCN(C)S(=O)(=O)Nc1ccc(F)c(C(=O)c2c[nH]c3ncc(-c4cnc(N5CCN(C(=O)CN6CCC(c7ccc(NC8CCC(=O)NC8=O)cc7)CC6)CC5)nc4)cc23)c1F (centres unmarked) [Example 18, 5-[2-[4-[2-[4-[4-[(2,6-dioxo-3-piperidyl)amino]phenyl]-1-piperidyl]acetyl]piperazin-1-yl]pyrimidin-5-yl]-3-[3-[[ethyl(methyl)sulfamoyl]amino]-2,6-difluoro-benzoyl]-1H-pyrrolo[2,3-b]pyridine] |
| 2.09 | 10.8 |  | CCN(C)S(=O)(=O)Nc1ccc(F)c(C(=O)c2c[nH]c3ncc(-c4cnc(N5CCN(C(=O)CN6CCC(c7ccc8c(C9CCC(=O)NC9=O)nn(C)c8c7)CC6)CC5)nc4)cc23)c1F (centres unmarked) [Example 27, 3-(2,6-dioxo-3-piperidyl)-6-[1-[2-[4-[5-[3-[3-[[ethyl(methyl)sulfamoyl]amino]-2,6-difluoro-benzoyl]-1H-pyrrolo[2,3-b]pyridin-5-yl]pyrimidin-2-yl]piperazin-1-yl]-2-oxo-ethyl]-4-piperidyl]-1-methyl-indazole] |
